Laboratory results taken from the supplement of paper PMC11061612.

Tests used:
[1] = test system: FU-OV-1 (Ovarian Carcinoma); experiment: combination Emax (second highest fraction inhibited in the dose matrix, 72 h); higher = more inhibition; extreme values may be limits of the assay
Outline: (§1)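 Cell lines in DMEM/F12 or RPMI with 10% FBS were plated in 1536-well plates, held 24 hours at 37°C, 5% CO2, then given two-drug dose matrices for 72 hours (DMSO typically 0.2%). Viability was read by CellTiter-Glo 2.0 luminescence and scaled as inhibition from 0 (vehicle wells) to 1 (blank wells). Combination Emax is the second-highest inhibition in the matrix; Bliss excess is observed combination effect minus expected EA + EB − EA·EB, EA and EB being single-agent effects.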

[2] = test system: NCI-H1688 (Small Cell Lung Carcinoma); experiment: Bliss excess, mean over the matrix (fraction); higher = more synergy
Outline: as §1

[3] = test system: KG-1 (Acute Myeloid Leukemia); experiment: as above
Outline: as §1

CS1 (Chondrosarcoma) = experiment: as above
Outline: as §1

MSTO-211H (Mesothelioma) = experiment: as above
Outline: as §1

[4] = test system: MEG-01 (Chronic Myelogenous Leukemia); experiment: as above
Outline: as §1

[5] = test system: FU-OV-1 (Ovarian Carcinoma); experiment: as above
Outline: as §1

[6] = test system: GDM-1 (Acute Myeloid Leukemia); experiment: as above
Outline: as §1

[7] = test system: ETK-1 (Biliary Tract Carcinoma); experiment: as above
Outline: as §1

[8] = test system: SK-LMS-1 (Other Solid Carcinomas); experiment: as above
Outline: as §1

[9] = test system: 647-V (Bladder Carcinoma); experiment: as above
Outline: as §1

[10] = test system: CAL-39 (Other Solid Carcinomas); experiment: as above
Outline: as §1

[11] = test system: SNU-61 (Colorectal Carcinoma); experiment: as above
Outline: as §1

[12] = test system: HCC1143 (Breast Carcinoma); experiment: as above
Outline: as §1

[13] = test system: TC-YIK (Other Solid Carcinomas); experiment: combination Emax (second highest fraction inhibited in the dose matrix, 72 h); higher = more inhibition; extreme values may be limits of the assay
Outline: as §1

[14] = test system: TC-YIK (Other Solid Carcinomas); experiment: Bliss excess, mean over the matrix (fraction); higher = more synergy
Outline: as §1
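Throughout, for Bliss excess, mean over the matrix: after 72 h of two-drug dosing.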

SMILES | combination Emax [1] | Bliss excess [2] | Bliss excess [3] | Bliss excess (CS1 (Chondrosarcoma)) | Bliss excess (MSTO-211H (Mesothelioma)) | Bliss excess [4] | Bliss excess [5] | Bliss excess [6] | Bliss excess [7] | Bliss excess [8] | Bliss excess [9] | Bliss excess [10] | Bliss excess [11] | Bliss excess [12] | combination Emax [13] | Bliss excess [14]
CN(CCO)CC[C@H](CSc1ccccc1)Nc1ccc(S(=O)(=O)NC(=O)c2ccc(N3CCC([C@@H](O)c4ccccc4-c4ccc(Cl)cc4)CC3)cc2)cc1S(=O)(=O)C(F)(F)F [AZD4320] + C[C@@H](Nc1cc(F)cc(F)c1)c1cc(C(=O)N(C)C)cc2c(=O)cc(N3CCOCC3)oc12 [AZD8186] (first compound max 1 µM, 7x7, partner max 3 µM) | 0.558 | 0.0259 | 0.066 | -0.0411 | 0.0841 | 0.0022 | -0.0284 | 0.0375 | -0.046 | 0.0304 | 0.0441 | 0.0175 | 0.016 | 0.0263 | – | –
CN(CCO)CC[C@H](CSc1ccccc1)Nc1ccc(S(=O)(=O)NC(=O)c2ccc(N3CCC([C@@H](O)c4ccccc4-c4ccc(Cl)cc4)CC3)cc2)cc1S(=O)(=O)C(F)(F)F [AZD4320] + Cn1cnc2c(F)c(Nc3ccc(Br)cc3Cl)c(C(=O)NOCCO)cc21 [Selumetinib] (first compound max 1 µM, 7x7, partner max 3 µM) | 0.619 | 0.0285 | 0.0452 | -0.0054 | 0.0146 | 0.0005 | 0.0354 | 0.0223 | 0.0502 | 0.0293 | 0.0631 | 0.0039 | 0.0604 | 0.0112 | – | –
Cc1nc(Nc2ncc(C(=O)Nc3c(C)cccc3Cl)s2)cc(N2CCN(CCO)CC2)n1 [Dasatinib] + CC(=O)Nc1cccc(-n2c(=O)n(C3CC3)c(=O)c3c(Nc4ccc(I)cc4F)n(C)c(=O)c(C)c32)c1 [Trametinib] (first compound max 2 µM, 7x7, partner max 1 µM) | – | -0.0122 | 0.0659 | -0.022 | -0.001 | 0.0019 | – | -0.102 | 0.0226 | -0.0457 | -0.002 | 0.0171 | 0.0295 | 0.0293 | 0.638 | 0.0746
CS(=O)(=O)CCNCc1ccc(-c2ccc3ncnc(Nc4ccc(OCc5cccc(F)c5)c(Cl)c4)c3c2)o1 [Lapatinib] + Cn1cnc2c(F)c(Nc3ccc(Br)cc3Cl)c(C(=O)NOCCO)cc21 [Selumetinib] (first compound max 10 µM, 7x7, partner max 10 µM) | 0.55 | – | – | -0.0337 | -0.0401 | -0.0206 | -0.0698 | – | – | 0.0047 | – | -0.0923 | – | – | 0.531 | 0.0665
COc1cccc(OCCCN)c1-c1cc(Nc2cnc(C#N)cn2)n[nH]1 [Prexasertib] + CCc1c2c(nc3ccc(O)cc13)-c1cc3c(c(=O)n1C2)COC(=O)[C@]3(O)CC [SN-38] (first compound max 1 µM, 7x7, partner max 0.3 µM) | 0.806 | 0.111 | -0.0454 | -0.0742 | -0.0857 | -0.0073 | 0.0846 | -0.0108 | 0.0465 | -0.0239 | 0.0129 | -0.0308 | 0.0163 | 0.0452 | – | –
Cc1nc(-c2cn3c(n2)-c2ccc(-c4cnn(C(C)(C)C(N)=O)c4)cc2OCC3)n(C(C)C)n1 [Taselisib] + O=C(Nc1ccc2[nH]nc(-c3ccncc3)c2c1)[C@@H]1CCN(CC(=O)N2CCN(c3ccc(-c4ncccn4)cc3)CC2)C1 [SCH772984] (first compound max 10 µM, 7x7, partner max 5 µM) | 0.727 | – | – | 0.0942 | 0.131 | 0.0128 | -0.0373 | – | – | 0.106 | – | 0.0609 | – | – | 0.661 | 0.0859
CC(=O)Nc1cccc(-n2c(=O)n(C3CC3)c(=O)c3c(Nc4ccc(I)cc4F)n(C)c(=O)c(C)c32)c1 [Trametinib] + Cc1nc(-c2cn3c(n2)-c2ccc(-c4cnn(C(C)(C)C(N)=O)c4)cc2OCC3)n(C(C)C)n1 [Taselisib] (first compound max 1 µM, 7x7, partner max 10 µM) | – | 0.127 | 0.131 | 0.0483 | 0.122 | 0.0324 | – | 0.0571 | 0.134 | 0.0854 | 0.106 | 0.0657 | 0.0995 | 0.0615 | – | –
CC1(C)CCC(CN2CCN(c3ccc(C(=O)NS(=O)(=O)c4ccc(NCC5CCOCC5)c([N+](=O)[O-])c4)c(Oc4cnc5[nH]ccc5c4)c3)CC2)=C(c2ccc(Cl)cc2)C1 [Venetoclax] + C1CN(CCC1(C(=O)N[C@@H](CCO)C2=CC=C(C=C2)Cl)N)C3=NC=NC4=C3C=CN4 [Capivasertib] (first compound max 1 µM, 7x7, partner max 3 µM) | 0.151 | -0.0065 | 0.041 | -0.072 | -0.0496 | -0.0349 | -0.0783 | -0.0325 | -0.0619 | -0.0485 | -0.0247 | -0.0183 | -0.0321 | -0.0004 | – | –
CC1(C)CCC(CN2CCN(c3ccc(C(=O)NS(=O)(=O)c4ccc(NCC5CCOCC5)c([N+](=O)[O-])c4)c(Oc4cnc5[nH]ccc5c4)c3)CC2)=C(c2ccc(Cl)cc2)C1 [Venetoclax] + C=CCn1c(=O)c2cnc(Nc3ccc(N4CCN(C)CC4)cc3)nc2n1-c1cccc(C(C)(C)O)n1 [AZD1775] (first compound max 1 µM, partner max 1 µM) | 0.612 | -0.0067 | 0.201 | 0.0589 | -0.0183 | 0.0146 | -0.0599 | 0.132 | -0.0661 | -0.0306 | -0.0274 | -0.0308 | -0.0321 | -0.0192 | – | –
CC1(C)CCC(CN2CCN(c3ccc(C(=O)NS(=O)(=O)c4ccc(NCC5CCOCC5)c([N+](=O)[O-])c4)c(Oc4cnc5[nH]ccc5c4)c3)CC2)=C(c2ccc(Cl)cc2)C1 [Venetoclax] + CCN(CCO)CCCOc1ccc2c(Nc3cc(CC(=O)Nc4cccc(F)c4)[nH]n3)ncnc2c1 [AZD2811] (first compound max 1 µM, 7x7, partner max 1 µM) | 0.238 | 0.0436 | 0.0766 | -0.0259 | -0.0066 | -0.0108 | -0.0705 | 0.0676 | -0.0793 | -0.0616 | 0.0533 | -0.0113 | -0.0084 | 0.0005 | – | –
CC1(C)CCC(CN2CCN(c3ccc(C(=O)NS(=O)(=O)c4ccc(NCC5CCOCC5)c([N+](=O)[O-])c4)c(Oc4cnc5[nH]ccc5c4)c3)CC2)=C(c2ccc(Cl)cc2)C1 [Venetoclax] + CN(C)CCCOc1ccc(-c2ccc3ncc4c(c3c2)n(C2CCOCC2)c(=O)n4C)cn1 [AZD0156] (first compound max 1 µM, 7x7, partner max 1 µM) | 0.291 | 0.0209 | 0.0741 | 0.0599 | -0.0243 | -0.0291 | -0.0223 | -0.0235 | -0.021 | 0.001 | -0.0036 | -0.0214 | 0.0062 | -0.0051 | – | –
CC1(C)CCC(CN2CCN(c3ccc(C(=O)NS(=O)(=O)c4ccc(NCC5CCOCC5)c([N+](=O)[O-])c4)c(Oc4cnc5[nH]ccc5c4)c3)CC2)=C(c2ccc(Cl)cc2)C1 [Venetoclax] + COc1cc(Nc2ncc3c(n2)-c2ccc(Cl)cc2C(c2c(F)cccc2OC)=NC3)ccc1C(=O)O [Alisertib] (first compound max 1 µM, 7x7, partner max 10 µM) | 0.665 | 0.0566 | 0.273 | -0.0227 | 0.0116 | 0.0985 | -0.0614 | 0.0312 | -0.0385 | 0.0215 | -0.0092 | -0.0989 | -0.0091 | 0.0244 | – | –
CC1(C)CCC(CN2CCN(c3ccc(C(=O)NS(=O)(=O)c4ccc(NCC5CCOCC5)c([N+](=O)[O-])c4)c(Oc4cnc5[nH]ccc5c4)c3)CC2)=C(c2ccc(Cl)cc2)C1 [Venetoclax] + C[C@@H]1COCCN1C2=NC(=NC(=C2)C3(CC3)[S@](=N)(=O)C)C4=C5C=CNC5=NC=C4 [AZD6738] (first compound max 1 µM, 7x7, partner max 10 µM) | 0.485 | 0.0294 | 0.075 | 0.0039 | -0.0344 | -0.0256 | -0.0444 | -0.0163 | -0.0562 | -0.0884 | -0.0317 | -0.026 | 0.0295 | -0.0573 | – | –
CC1(C)CCC(CN2CCN(c3ccc(C(=O)NS(=O)(=O)c4ccc(NCC5CCOCC5)c([N+](=O)[O-])c4)c(Oc4cnc5[nH]ccc5c4)c3)CC2)=C(c2ccc(Cl)cc2)C1 [Venetoclax] + C[C@@H](Nc1cc(F)cc(F)c1)c1cc(C(=O)N(C)C)cc2c(=O)cc(N3CCOCC3)oc12 [AZD8186] (first compound max 1 µM, 7x7, partner max 3 µM) | 0.412 | -0.0385 | 0.114 | -0.0923 | -0.0052 | -0.0492 | -0.0594 | 0.15 | -0.0284 | -0.014 | -0.0019 | -0.106 | -0.0314 | -0.0141 | – | –
CC1(C)CCC(CN2CCN(c3ccc(C(=O)NS(=O)(=O)c4ccc(NCC5CCOCC5)c([N+](=O)[O-])c4)c(Oc4cnc5[nH]ccc5c4)c3)CC2)=C(c2ccc(Cl)cc2)C1 [Venetoclax] + Cc1cc2ncnn2cc1Nc1ncc2c(n1)n(C1CCOCC1)c(=O)n2C [AZD7648] (first compound max 1 µM, 7x7, partner max 10 µM) | 0.358 | 0.0457 | 0.0848 | -0.0949 | -0.0564 | -0.0249 | -0.036 | 0.0419 | 0.0273 | -0.0292 | 0.0316 | -0.104 | 0.0023 | 0.0481 | – | –
CC1(C)CCC(CN2CCN(c3ccc(C(=O)NS(=O)(=O)c4ccc(NCC5CCOCC5)c([N+](=O)[O-])c4)c(Oc4cnc5[nH]ccc5c4)c3)CC2)=C(c2ccc(Cl)cc2)C1 [Venetoclax] + Cn1cnc2c(F)c(Nc3ccc(Br)cc3Cl)c(C(=O)NOCCO)cc21 [Selumetinib] (first compound max 1 µM, 7x7, partner max 3 µM) | 0.445 | -0.0333 | 0.0735 | -0.0498 | -0.0393 | -0.0242 | -0.0929 | 0.0554 | -0.0333 | -0.029 | -0.0064 | 0.0138 | 0.0136 | -0.0093 | – | –
